Experimental data reported in PubChem BioAssay (NCI).
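Test compounds were applied to cells in 96-well plates for 48 hours at 5 doses. Definition used: TGI = concentration required for complete inhibition of growth.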

Key:
Assay in all cases: NCI anticancer screen, dose series, 48 h
KM12 colon = system: KM12 colon
SK-MEL-5 melanoma = system: SK-MEL-5 melanoma
DU-145 prostate = system: DU-145 prostate
HCT-15 colon = system: HCT-15 colon
OVCAR-8 ovarian = system: OVCAR-8 ovarian
COLO 205 colon = system: COLO 205 colon
M14 melanoma = system: M14 melanoma
OVCAR-4 ovarian = system: OVCAR-4 ovarian
SNB-75 CNS = system: SNB-75 CNS
UACC-62 melanoma = system: UACC-62 melanoma
SK-MEL-2 melanoma = system: SK-MEL-2 melanoma
MOLT-4 leukemia = system: MOLT-4 leukemia
K-562 leukemia = system: K-562 leukemia
OVCAR-3 ovarian = system: OVCAR-3 ovarian
RPMI-8226 leukemia = system: RPMI-8226 leukemia
SF-295 CNS = system: SF-295 CNS
SK-OV-3 ovarian = system: SK-OV-3 ovarian
BT-549 breast = system: BT-549 breast

| SMILES | TGI (KM12 colon) [µM] | TGI (SK-MEL-5 melanoma) [µM] | TGI (DU-145 prostate) [µM] | TGI (HCT-15 colon) [µM] | TGI (OVCAR-8 ovarian) [µM] | TGI (COLO 205 colon) [µM] | TGI (M14 melanoma) [µM] | TGI (OVCAR-4 ovarian) [µM] | TGI (SNB-75 CNS) [µM] | TGI (UACC-62 melanoma) [µM] | TGI (SK-MEL-2 melanoma) [µM] | TGI (MOLT-4 leukemia) [µM] | TGI (K-562 leukemia) [µM] | TGI (OVCAR-3 ovarian) [µM] | TGI (RPMI-8226 leukemia) [µM] | TGI (SF-295 CNS) [µM] | TGI (SK-OV-3 ovarian) [µM] | TGI (BT-549 breast) [µM] |
| --- | --- | --- | --- | --- | --- | --- | --- | --- | --- | --- | --- | --- | --- | --- | --- | --- | --- | --- |
| CCn1c(SCC(=O)NNC(=S)Nc2ccc([N+](=O)[O-])cc2)nc2ccccc2c1=O | > 100 | > 100 | > 100 | > 100 | > 100 | > 100 | > 100 | > 100 | > 100 | > 100 | > 100 | 65.8 | > 100 | > 100 | > 100 | > 100 | > 100 | > 100 |
| CN(C)C(=S)/N=c1\ssc(=S)n1Cc1ccccc1 | > 100 | 18.3 | 21.7 | > 49.6 | 17.7 | 1.95 | 13 | 30.2 | 3.29 | 16.8 | 9.67 | 29 | 12.5 | 0.512 | 31.6 | 6.29 | 5.27 | > 100 |
| Brc1cc(CCOC2CCCCO2)c(-c2sccc2CCOC2CCCCO2)s1 (centres undefined) | > 100 | > 100 | > 100 | > 100 | > 100 | > 100 | > 100 | > 100 | > 100 | > 100 | 98.4 | > 61.3 | > 31.6 | > 100 | > 100 | > 100 | > 100 | > 100 |
